This is an account of results in US8535950B2, “Use of perfluoropolymer submicrometric latexes in the determination of molecular interactions by laser light scattering (LLS)” (Solvay Solexis S.p.A., priority 2005, dated 2013).

This test relates to peptide sequence L-Lys-D-Ala-D-Ala. Briefly: Binding constant by laser light scattering (LLS) on perfluoropolymer latex particles coated with receptor-ended surfactant. An excerpt:
More specifically the use comprises the following steps: • a) addition to a colloidal aqueous suspension or latex of particles having an average diameter between 5 and 200 nm, preferably between 40 and 80 nm, formed of a perfluorinated, semicrystalline or amorphous polymer, of a sequence of known volumes of an aqueous solution of a mixture containing from 50% to 99.5% by weight of an amphiphylic non ionic surfactant and from 0.5 to 50% by weight of a surfactant ended with a receptor, measuring after each addition the intensity of the scattered light by the suspension by Laser Scattering Light (LLS) and reporting it on a diagram in function of the progressively added solution volume, until reaching an asymptotic value (Ir); • b) addition to the suspension obtained in step a) of a sequence of known volumes of a ligand aqueous solution, measuring after each addition the intensity of the scattered light by the suspension by Laser Scattering Light (LLS) its reporting on a diagram in function of the progressively added solution volume (expressed as molar concentration [T0]), until reaching an asymptotic value and fitting the scattered light intensity data (I) in function of the ligand additions ([T0]) with formula (1) to obtain the receptor-ligand binding constant (K), wherein formula (1) is: […]

The structures appear in SMILES notation. Structures can show the parent of a compound that is named as a salt.

`CN[C@H](CC(C)C)C(=O)N[C@H]1C(=O)N[C@@H](CC(N)=O)C(=O)N[C@H]2C(=O)N[C@H]3C(=O)N[C@H](C(=O)N[C@H](C(=O)O)c4cc(O)cc(O)c4-c4cc3ccc4O)[C@H](O)c3ccc(c(Cl)c3)Oc3cc2cc(c3O[C@@H]2O[C@H](CO)[C@@H](O)[C@H](O)[C@H]2O[C@H]2C[C@](C)(N)[C@H](O)[C@H](C)O2)Oc2ccc(cc2Cl)[C@H]1O` [Vancomycin, Vancomycin hydrochloride hydrate]: the receptor-ligand binding constant was 1.5e+06 mol⁻¹ (Example 1: 0.1% latex, 78 nm particles of TFE copolymer with 40% by moles perfluoromethylvinylether, 0.4 millimole Vancomycin solution in 6 microlitre portions, Langmuir fit) and 1.1e+06 mol⁻¹ (Example 2: 0.1% latex, 40 nm particles of TFE copolymer with 30% by moles TTD, 0.9 millimolar Vancomycin in 6 microlitre portions).
